Laboratory results as given in publication PMC7561186, “Rational design of balanced dual-targeting antibiotics with limited resistance” (PLoS Biology, 2020).
Values after ≈ are worked out from the molar mass of the structure shown. Like-named read-outs stand apart in the source and are kept apart here.

Test system: S. aureus clinical isolates
Experiment: microbe, parasite or virus in culture
Assay type: cell-based

For Cc1[nH]c(C(=O)Nc2nc3c(OCc4ccccc4)cc(C(=O)O)cc3s2)c(Cl)c1Cl [ULD2], the MIC (S. aureus ATCC 29213, MSSA / VSSA, test date 2018-10-25 (three repeat lines)) was 0.5 µg/mL (≈ 1.05 µM), the MIC (Staphylococcus aureus, ATCC 29213 / MSSA, S. aureus ATCC 29213, MSSA / VSSA, test date 2018-10-25 (three repeat lines), read-out: MIC) was 0.25 µg/mL (≈ 0.525 µM) and the MIC (Staphylococcus aureus, ATCC 29213 / MSSA, S. aureus ATCC 29213, MSSA / VSSA, test date 2018-11-07, read-out: MIC) was 0.25 µg/mL (≈ 0.525 µM). It also gave an MIC (Staphylococcus aureus, MRSA / NRS 3 / VISA, S. aureus IHMA 1308243, NRS3, MRSA / VISA, read-out: MIC) of 0.5 µg/mL (≈ 1.05 µM), an MIC (Staphylococcus aureus, MRSA / NRS 4 / VISA, S. aureus IHMA 649380, NRS4, MRSA / VISA, read-out: MIC) of 0.25 µg/mL (≈ 0.525 µM) and an MIC (Staphylococcus aureus, MRSA / NRS 18 / VISA, S. aureus IHMA 649386, NRS18, MRSA / VISA, read-out: MIC) of 0.5 µg/mL (≈ 1.05 µM). The MIC (Staphylococcus aureus, MRSA / NRS 19 / VISA, S. aureus IHMA 649387, NRS19, MRSA / VISA, read-out: MIC) was 0.25 µg/mL (≈ 0.525 µM), the MIC (Staphylococcus aureus, MRSA / NRS 21 / VISA, S. aureus IHMA 649388, NRS21, MRSA / VISA, read-out: MIC) was 0.25 µg/mL (≈ 0.525 µM) and the MIC (Staphylococcus aureus, MRSA / NRS 22 / USA600 / VISA, S. aureus IHMA 649389, NRS22, MRSA / VISA, USA600, read-out: MIC) was 0.5 µg/mL (≈ 1.05 µM). For the same compound, the MIC (Staphylococcus aureus, MRSA / NRS 23 / VISA, S. aureus IHMA 649390, NRS23, MRSA / VISA, read-out: MIC) was 0.5 µg/mL (≈ 1.05 µM), the MIC (Staphylococcus aureus, MRSA / NRS 24 / VISA, S. aureus IHMA 649391, NRS24, MRSA / VISA, read-out: MIC) was 0.25 µg/mL (≈ 0.525 µM) and the MIC (Staphylococcus aureus, MRSA / NRS 26, S. aureus IHMA 649392, NRS26, MRSA / VSSA, read-out: MIC) was 0.5 µg/mL (≈ 1.05 µM). It also gave an MIC (Staphylococcus aureus, MRSA / NRS 27 / VISA, S. aureus IHMA 1308248, NRS27, MRSA / VISA, read-out: MIC) of 0.5 µg/mL (≈ 1.05 µM), an MIC (Staphylococcus aureus, MRSA / NRS 29 / VISA, S. aureus IHMA 1308250, NRS29, MRSA / VISA, read-out: MIC) of 0.25 µg/mL (≈ 0.525 µM) and an MIC (Staphylococcus aureus, MRSA / NRS 37 / VISA, S. aureus IHMA 1308251, NRS37, MRSA / VISA, read-out: MIC) of 0.5 µg/mL (≈ 1.05 µM). For the same compound, the MIC (Staphylococcus aureus, MRSA / NRS 54, S. aureus IHMA 1308253, NRS54, MRSA / VSSA* (*Expected VAN intermediate, confirmed VAN susceptible twice), test date 2018-11-07, read-out: MIC) was 0.12 µg/mL (≈ 0.252 µM), the MIC (Staphylococcus aureus, MRSA / NRS 56 / VISA, S. aureus IHMA 1308254, NRS56, MRSA / VISA, read-out: MIC) was 0.25 µg/mL (≈ 0.525 µM) and the MIC (Staphylococcus aureus, MRSA / USA100 / VRSA, S. aureus IHMA 672230, VRS1, MRSA / VRSA, USA100, read-out: MIC) was 0.25 µg/mL (≈ 0.525 µM). The MIC (Staphylococcus aureus, MRSA / USA100 / VRSA, S. aureus IHMA 672231, VRS2, MRSA / VRSA, USA100, read-out: MIC) was 0.25 µg/mL (≈ 0.525 µM), the MIC (Staphylococcus aureus, MRSA / USA100 / VRSA, S. aureus IHMA 672234, VRS4, MRSA / VRSA, USA100, read-out: MIC) was 0.25 µg/mL (≈ 0.525 µM) and the MIC (Staphylococcus aureus, MRSA / USA100 / VRSA, S. aureus IHMA 672235, VRS5, MRSA / VRSA, USA100, read-out: MIC) was 0.25 µg/mL (≈ 0.525 µM). The MIC (Staphylococcus aureus, MRSA / USA100 / VRSA, S. aureus IHMA 672237, VRS7, MRSA / VRSA, USA100, read-out: MIC) was 0.25 µg/mL (≈ 0.525 µM), the MIC (Staphylococcus aureus, MRSA / USA100 / VRSA, S. aureus IHMA 672238, VRS8, MRSA / VRSA, USA100, read-out: MIC) was 0.25 µg/mL (≈ 0.525 µM) and the MIC (Staphylococcus aureus, MRSA / USA100 / VRSA, S. aureus IHMA 672239, VRS9, MRSA / VRSA, USA100, read-out: MIC) was 0.25 µg/mL (≈ 0.525 µM). For the same compound, the MIC (Staphylococcus aureus, MRSA / USA100 / VRSA, S. aureus IHMA 1308256, VRS10, MRSA / VRSA, USA100, read-out: MIC) was 0.5 µg/mL (≈ 1.05 µM), the MIC (Staphylococcus aureus, MRSA / USA100 / VRSA, S. aureus IHMA 1308258, VRS11b, MRSA / VRSA, USA100, read-out: MIC) was 0.25 µg/mL (≈ 0.525 µM) and the MIC (Staphylococcus aureus, MRSA / USA800 / VRSA, S. aureus IHMA 672233, VRS3b, MRSA / VRSA, USA800, read-out: MIC) was 0.06 µg/mL (≈ 0.126 µM). The MIC (Staphylococcus aureus, MRSA / VISA / VRSA, all isolates of the panel (MRSA, VISA, VRSA), read-out: MIC against all tested S. aureus clinical isolates) was no more than 1 µg/mL, the MIC (Staphylococcus aureus, MRSA, S. aureus IHMA 1569509, MRSA / VSSA, read-out: MIC) was 0.12 µg/mL (≈ 0.252 µM) and the MIC (Staphylococcus aureus, MRSA, S. aureus IHMA 1575268, MRSA / VSSA, read-out: MIC) was 0.25 µg/mL (≈ 0.525 µM). It also gave an MIC (Staphylococcus aureus, MRSA, S. aureus IHMA 1575629, MRSA / VSSA, read-out: MIC) of 0.25 µg/mL (≈ 0.525 µM), an MIC (Staphylococcus aureus, MRSA, S. aureus IHMA 1577820, MRSA / VSSA, read-out: MIC) of 0.5 µg/mL (≈ 1.05 µM) and an MIC (Staphylococcus aureus, MRSA, S. aureus IHMA 1580300, MRSA / VSSA, read-out: MIC) of 0.12 µg/mL (≈ 0.252 µM). It also gave an MIC (Staphylococcus aureus, MRSA, S. aureus IHMA 1580940, MRSA / VSSA, read-out: MIC) of 0.5 µg/mL (≈ 1.05 µM), an MIC (Staphylococcus aureus, MRSA, S. aureus IHMA 1582100, MRSA / VSSA, read-out: MIC) of 0.25 µg/mL (≈ 0.525 µM) and an MIC (Staphylococcus aureus, MRSA, S. aureus IHMA 1583795, MRSA / VSSA, read-out: MIC) of 1 µg/mL (≈ 2.1 µM). For the same compound, the MIC (Staphylococcus aureus, MRSA, S. aureus IHMA 1584223, MRSA / VSSA, read-out: MIC) was 0.5 µg/mL (≈ 1.05 µM), the MIC (Staphylococcus aureus, MRSA, S. aureus IHMA 1585316, MRSA / VSSA, read-out: MIC) was 0.25 µg/mL (≈ 0.525 µM) and the MIC (Staphylococcus aureus, MRSA, S. aureus IHMA 1586780, MRSA / VSSA, read-out: MIC) was 0.25 µg/mL (≈ 0.525 µM). For the same compound, the MIC (Staphylococcus aureus, MRSA, S. aureus IHMA 1587322, MRSA / VSSA, read-out: MIC) was 0.25 µg/mL (≈ 0.525 µM), the MIC (Staphylococcus aureus, MRSA, S. aureus IHMA 1588127, MRSA / VSSA, read-out: MIC) was 0.25 µg/mL (≈ 0.525 µM) and the MIC (Staphylococcus aureus, MRSA, S. aureus IHMA 1591462, MRSA / VSSA, read-out: MIC) was 0.12 µg/mL (≈ 0.252 µM). It also gave an MIC (Staphylococcus aureus, MRSA, S. aureus IHMA 1592755, MRSA / VSSA, read-out: MIC) of 0.5 µg/mL (≈ 1.05 µM), an MIC (Staphylococcus aureus, MRSA, S. aureus IHMA 1592776, MRSA / VSSA, read-out: MIC) of 0.25 µg/mL (≈ 0.525 µM) and an MIC (Staphylococcus aureus, MRSA, S. aureus IHMA 1597106, MRSA / VSSA, read-out: MIC) of 0.5 µg/mL (≈ 1.05 µM). The MIC (Staphylococcus aureus, MRSA, S. aureus IHMA 1602095, MRSA / VSSA, read-out: MIC) was 0.25 µg/mL (≈ 0.525 µM), the MIC (Staphylococcus aureus, MRSA, S. aureus IHMA 1611170, MRSA / VSSA, read-out: MIC) was 0.25 µg/mL (≈ 0.525 µM) and the MIC (Staphylococcus aureus, MRSA, S. aureus IHMA 1611612, MRSA / VSSA, read-out: MIC) was 0.25 µg/mL (≈ 0.525 µM). The MIC (Staphylococcus aureus, MRSA, S. aureus IHMA 1612228, MRSA / VSSA, read-out: MIC) was 0.25 µg/mL (≈ 0.525 µM), the MIC (Staphylococcus aureus, MRSA, S. aureus IHMA 1620441, MRSA / VSSA, read-out: MIC) was 0.25 µg/mL (≈ 0.525 µM) and the MIC (Staphylococcus aureus, MRSA, S. aureus IHMA 1621638, MRSA / VSSA, read-out: MIC) was 0.5 µg/mL (≈ 1.05 µM). The MIC (Staphylococcus aureus, MRSA, S. aureus IHMA 1622252, MRSA / VSSA, read-out: MIC) was 0.5 µg/mL (≈ 1.05 µM), the MIC (Staphylococcus aureus, MRSA, S. aureus IHMA 1622527, MRSA / VSSA, read-out: MIC) was 0.25 µg/mL (≈ 0.525 µM) and the MIC (Staphylococcus aureus, MRSA, S. aureus IHMA 1666371, MRSA / VSSA, read-out: MIC) was 0.25 µg/mL (≈ 0.525 µM). For the same compound, the MIC (Staphylococcus aureus, MRSA, S. aureus IHMA 1695391, MRSA / VSSA, read-out: MIC) was 0.12 µg/mL (≈ 0.252 µM), the MIC (Staphylococcus aureus, MRSA, S. aureus IHMA 1703428, MRSA / VSSA, read-out: MIC) was 0.5 µg/mL (≈ 1.05 µM) and the MIC (Staphylococcus aureus, MRSA, S. aureus IHMA 1720350, MRSA / VSSA, read-out: MIC) was 0.5 µg/mL (≈ 1.05 µM). For the same compound, the MIC (Staphylococcus aureus, MRSA, S. aureus IHMA 1732989, MRSA / VSSA, read-out: MIC) was 0.5 µg/mL (≈ 1.05 µM) and the MIC (Staphylococcus aureus, MRSA, S. aureus IHMA 1742231, MRSA / VSSA, read-out: MIC) was 0.12 µg/mL (≈ 0.252 µM).
